Results as given in ChEMBL document CHEMBL3431459, “Roche carnitine palmitoyltransferase modulator screening data (supplementary data associated with the publication CHEMBL2216752)”.
Values after ≈ are worked out from the molar mass of the structure shown.

Experiments:
[1] = SUPPLEMENTARY: PAMPA permeability assay; format: physicochemical; details: read-out: Permeability
[2] = SUPPLEMENTARY: Lyophilisation Solubility Assay (LYSA); format: physicochemical; details: read-out: Kinetic_solubility
[3] = target: T1, Carnitine O-palmitoyltransferase 2, mitochondrial (Homo sapiens, UniProt P23786); assay: (§1) SUPPLEMENTARY: Inhibition of Carnitine palmitoyltransferase 2
T1 sequence (P23786 whole entry): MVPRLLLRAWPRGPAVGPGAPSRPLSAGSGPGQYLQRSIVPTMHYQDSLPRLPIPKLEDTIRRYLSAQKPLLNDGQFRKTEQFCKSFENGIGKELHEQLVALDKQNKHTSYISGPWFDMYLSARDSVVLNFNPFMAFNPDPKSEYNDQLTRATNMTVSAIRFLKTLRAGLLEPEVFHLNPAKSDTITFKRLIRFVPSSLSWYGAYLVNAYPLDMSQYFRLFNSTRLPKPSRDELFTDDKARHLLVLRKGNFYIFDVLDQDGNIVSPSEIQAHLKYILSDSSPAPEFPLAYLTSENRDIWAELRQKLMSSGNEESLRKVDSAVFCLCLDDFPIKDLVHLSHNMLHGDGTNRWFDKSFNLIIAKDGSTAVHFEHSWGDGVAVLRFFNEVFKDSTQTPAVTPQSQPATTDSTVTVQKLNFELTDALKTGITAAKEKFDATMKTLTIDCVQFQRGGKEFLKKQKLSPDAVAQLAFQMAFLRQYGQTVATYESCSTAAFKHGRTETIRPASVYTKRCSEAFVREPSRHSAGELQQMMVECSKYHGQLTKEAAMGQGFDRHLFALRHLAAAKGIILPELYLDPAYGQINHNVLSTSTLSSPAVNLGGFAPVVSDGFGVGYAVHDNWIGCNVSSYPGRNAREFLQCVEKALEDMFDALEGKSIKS

[4] = SUPPLEMENTARY: Lipophilicity (log D) Determination by high-throughput shake-flask; format: physicochemical; details: octanol/water
[5] = target: T2, Carnitine O-palmitoyltransferase 1, liver isoform (Rattus norvegicus, UniProt P32198); assay: (§2) SUPPLEMENTARY: Inhibition of Carnitine palmitoyltransferase 1, liver isoform
T2 sequence (P32198 whole entry): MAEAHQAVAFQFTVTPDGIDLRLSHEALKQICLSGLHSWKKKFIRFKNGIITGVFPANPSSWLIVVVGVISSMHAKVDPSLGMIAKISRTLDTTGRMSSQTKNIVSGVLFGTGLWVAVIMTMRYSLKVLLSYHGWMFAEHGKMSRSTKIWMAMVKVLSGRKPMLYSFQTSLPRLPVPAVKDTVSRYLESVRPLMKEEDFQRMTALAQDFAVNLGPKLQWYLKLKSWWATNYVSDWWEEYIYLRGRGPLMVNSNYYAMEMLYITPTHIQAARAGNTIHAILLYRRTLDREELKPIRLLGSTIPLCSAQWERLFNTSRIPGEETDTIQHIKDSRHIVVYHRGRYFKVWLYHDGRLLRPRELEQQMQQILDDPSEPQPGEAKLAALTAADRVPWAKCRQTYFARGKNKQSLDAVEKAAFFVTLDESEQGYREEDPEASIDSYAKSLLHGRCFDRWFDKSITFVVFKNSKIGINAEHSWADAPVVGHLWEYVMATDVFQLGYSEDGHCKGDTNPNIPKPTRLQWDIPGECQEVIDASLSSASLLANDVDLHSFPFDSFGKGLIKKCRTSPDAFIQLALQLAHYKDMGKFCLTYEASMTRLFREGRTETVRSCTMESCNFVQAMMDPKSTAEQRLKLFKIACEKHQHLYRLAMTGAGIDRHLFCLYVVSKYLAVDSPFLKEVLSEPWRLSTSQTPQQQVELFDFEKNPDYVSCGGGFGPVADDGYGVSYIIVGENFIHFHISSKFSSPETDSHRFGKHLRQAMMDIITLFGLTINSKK

[6] = target: T3, Carnitine O-palmitoyltransferase 1, liver isoform (Homo sapiens, UniProt P50416); assay: as §2
T3 sequence (P50416 whole entry): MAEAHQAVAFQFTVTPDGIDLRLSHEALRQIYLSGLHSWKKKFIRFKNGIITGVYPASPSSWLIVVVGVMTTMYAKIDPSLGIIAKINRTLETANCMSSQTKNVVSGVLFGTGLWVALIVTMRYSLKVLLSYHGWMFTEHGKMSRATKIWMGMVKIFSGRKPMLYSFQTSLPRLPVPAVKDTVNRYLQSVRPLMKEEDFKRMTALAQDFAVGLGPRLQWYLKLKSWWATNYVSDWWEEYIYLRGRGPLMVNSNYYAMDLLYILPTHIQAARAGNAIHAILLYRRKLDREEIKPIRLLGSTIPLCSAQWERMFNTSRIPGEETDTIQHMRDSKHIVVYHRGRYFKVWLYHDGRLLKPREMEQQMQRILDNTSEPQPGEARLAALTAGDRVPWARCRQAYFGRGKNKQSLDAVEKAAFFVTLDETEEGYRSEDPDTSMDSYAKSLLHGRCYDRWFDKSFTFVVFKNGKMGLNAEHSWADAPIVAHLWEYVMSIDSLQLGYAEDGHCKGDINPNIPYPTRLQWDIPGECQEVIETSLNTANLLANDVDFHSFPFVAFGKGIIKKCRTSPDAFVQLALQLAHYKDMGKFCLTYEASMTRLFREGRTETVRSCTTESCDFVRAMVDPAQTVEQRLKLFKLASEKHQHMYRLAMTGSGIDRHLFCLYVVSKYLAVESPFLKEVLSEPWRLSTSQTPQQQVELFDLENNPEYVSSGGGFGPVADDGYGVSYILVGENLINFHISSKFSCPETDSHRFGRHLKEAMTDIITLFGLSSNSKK

[7] = target: T4, Carnitine O-palmitoyltransferase 1, muscle isoform (Homo sapiens, UniProt Q92523); assay: SUPPLEMENTARY: Inhibition of Carnitine palmitoyltransferase 1, muscle isoform; design: species or system Muscle tissue
T4 sequence (Q92523 whole entry): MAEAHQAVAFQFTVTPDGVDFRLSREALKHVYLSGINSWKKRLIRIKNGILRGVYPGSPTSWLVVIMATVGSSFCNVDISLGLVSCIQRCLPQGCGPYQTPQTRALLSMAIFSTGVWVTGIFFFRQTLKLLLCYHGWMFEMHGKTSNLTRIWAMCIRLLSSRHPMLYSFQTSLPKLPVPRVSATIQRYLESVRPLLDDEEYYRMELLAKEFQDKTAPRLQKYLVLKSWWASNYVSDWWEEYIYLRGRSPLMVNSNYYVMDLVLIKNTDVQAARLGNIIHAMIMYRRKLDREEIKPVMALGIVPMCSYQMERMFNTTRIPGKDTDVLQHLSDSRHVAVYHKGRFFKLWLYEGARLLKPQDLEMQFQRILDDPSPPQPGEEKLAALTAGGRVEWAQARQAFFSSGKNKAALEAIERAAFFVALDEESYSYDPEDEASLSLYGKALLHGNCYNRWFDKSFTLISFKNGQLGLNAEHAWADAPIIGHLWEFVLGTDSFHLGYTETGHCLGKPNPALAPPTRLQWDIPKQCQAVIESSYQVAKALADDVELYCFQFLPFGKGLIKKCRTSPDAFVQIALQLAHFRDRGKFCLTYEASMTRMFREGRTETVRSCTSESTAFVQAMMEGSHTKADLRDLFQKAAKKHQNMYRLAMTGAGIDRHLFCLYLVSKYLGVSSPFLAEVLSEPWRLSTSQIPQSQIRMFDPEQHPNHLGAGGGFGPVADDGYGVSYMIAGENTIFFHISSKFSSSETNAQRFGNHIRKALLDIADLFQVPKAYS

[8] = target: T5, Carnitine O-palmitoyltransferase 2, mitochondrial (Rattus norvegicus, UniProt P18886); assay: as §1
T5 sequence (P18886 whole entry): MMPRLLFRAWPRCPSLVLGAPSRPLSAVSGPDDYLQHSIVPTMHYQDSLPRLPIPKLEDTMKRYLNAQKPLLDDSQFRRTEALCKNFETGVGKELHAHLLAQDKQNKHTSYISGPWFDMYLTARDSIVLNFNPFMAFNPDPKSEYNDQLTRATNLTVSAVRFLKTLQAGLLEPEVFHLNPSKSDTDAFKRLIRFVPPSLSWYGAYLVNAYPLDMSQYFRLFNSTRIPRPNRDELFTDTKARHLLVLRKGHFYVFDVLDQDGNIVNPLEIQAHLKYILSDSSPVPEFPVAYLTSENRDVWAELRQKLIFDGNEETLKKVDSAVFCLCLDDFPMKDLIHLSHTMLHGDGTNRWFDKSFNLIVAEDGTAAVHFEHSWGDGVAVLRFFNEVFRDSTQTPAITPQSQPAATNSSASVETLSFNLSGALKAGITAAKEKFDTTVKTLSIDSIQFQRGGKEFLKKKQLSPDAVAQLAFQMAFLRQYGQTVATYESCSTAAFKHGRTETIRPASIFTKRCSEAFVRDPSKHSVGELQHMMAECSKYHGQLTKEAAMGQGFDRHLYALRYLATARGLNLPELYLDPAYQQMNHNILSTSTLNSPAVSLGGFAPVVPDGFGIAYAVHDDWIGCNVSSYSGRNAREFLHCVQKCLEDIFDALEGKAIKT

| Papp [1] [×10⁻⁶ cm/s] | solubility kinetic [2] [µg/mL] | IC50 [3] [nM] | logD [4] | IC50 [5] [nM] | IC50 [6] [nM] | IC50 [7] [nM] | IC50 [8] [nM] | SMILES |
| --- | --- | --- | --- | --- | --- | --- | --- | --- |
| 2.02 | 87 (≈ 207 µM) | 23500 | 1.65 | 1630 | 264 | > 100000 | – | NNC(=O)c1cccc(-c2n[nH]c([C@H]3CCCCN3C(=O)COc3ccccc3)n2)c1 |
| 0.02 | 88 (≈ 312 µM) | > 100000 | 0.42 | – | 658 | > 100000 | > 100000 | COc1ccc2[nH]cc(C(=O)COc3ccncc3)c2c1 |
| 4.13 | > 559 | 7350 | 1.83 | 469 | 165 | > 100000 | – | COCCN(C)C(=O)c1cncc(-c2noc([C@H]3CCCCN3C(=O)COc3ccccc3)n2)c1 |
| 4.46 | 175 (≈ 382 µM) | 7150 | 1.41 | – | 824 | > 100000 | 45600 | NS(=O)(=O)c1ccc2c(c1)CN(C(=O)[C@H]1CCCCN1C(=O)COc1ccccc1)CC2 |
| 3.05 | 26 (≈ 60.4 µM) | 86100 | 2.66 | 388 | 80 | 748 | – | O=C(COc1ccccc1)N1CCCC[C@@H]1c1nc(-c2cccc(-c3nnco3)c2)n[nH]1 |
| 2.54 | 36 (≈ 65.5 µM) | 12000 | 0.66 | 188 | 370 | 3010 | – | COc1ccc(Cl)cc1S(=O)(=O)N1CCCCc2ccc(C(=O)Nc3ccc(C(=O)O)c(Cl)c3)cc21 |
| 0.65 | 7 (≈ 18.4 µM) | > 100000 | 3.24 | 97.9 | 36.4 | > 100000 | – | O=C(COc1ccccc1)N1CCCC[C@@H]1c1nc(-c2cccc(O)c2)no1 |
| 2.9 | 211 (≈ 410 µM) | 17600 | 1.5 | 181 | 289 | 14500 | – | COc1ccc(Cl)cc1S(=O)(=O)N1CCCCc2ccc(C(=O)Nc3ccc(C(=O)O)cc3)cc21 |
| 0.37 | > 547 | 19800 | -0.64 | 594 | 196 | 45900 | – | O=C(O)COc1cccc(-c2noc([C@H]3CCCCN3C(=O)COc3ccccc3)n2)c1 |
| 4.15 | 11 (≈ 27 µM) | 15600 | 2.16 | 205 | 67.2 | 30600 | – | O=C(COc1ccccc1)N1CCCC[C@@H]1c1nc(-c2cccc(B(O)O)c2)no1 |
| 5.44 | 431 (≈ 930 µM) | 9180 | 2.5 | 354 | 217 | > 100000 | – | CCN(CC)C(=O)c1cncc(-c2noc([C@H]3CCCCN3C(=O)COc3ccccc3)n2)c1 |
| 1.7 | 24 (≈ 53.8 µM) | 34000 | 2.42 | 367 | 115 | > 100000 | – | O=C(COc1ccccc1)N1CCCC[C@@H]1c1nc(-c2cccc(-c3n[nH]c(=O)o3)c2)n[nH]1 |
| 3.01 | 2 (≈ 4.23 µM) | 94700 | 2.92 | 89.8 | 66.4 | > 100000 | – | O=C(O)c1ccc(NC(=O)c2ccc3c(c2)N(S(=O)(=O)c2cccc(Cl)c2)CCO3)cc1 |
| 3.8 | 362 (≈ 859 µM) | 88500 | 2.09 | 422 | 203 | > 100000 | – | CNC(=O)c1cncc(-c2noc([C@H]3CCCCN3C(=O)COc3ccccc3)n2)c1 |
| 3.4 | 132 (≈ 309 µM) | > 100000 | 2.19 | 244 | 164 | > 100000 | – | COc1ccc(-c2noc(C3C[S+]([O-])CCN3C(=O)COc3ccccc3)n2)cc1 (configuration not stated) |
| 0.53 | 7 (≈ 19.4 µM) | 60600 | 3.63 | 375 | 159 | > 100000 | – | O=C(COc1ccccc1)N1CCCCC1c1cc(-c2ccccc2)n[nH]1 (configuration not stated) |
